Measurements taken from PMC10646112, “Mechanistic insights into glycoside 3-oxidases involved in C-glycoside metabolism in soil microorganisms” (Nature Communications, 2023).

Experiments:
PsG3Ox [1] = target: T1, PsG3Ox (Pseudarthrobacter siccitolerans, UniProt A0A024H8G7); assay: tryptophan fluorescence quenching titration of apo-enzyme; crystal structure; type: biochemical; design: gene ARTSIC4J27_4061; Apo-PsG3Ox
PsG3Ox [2] = target: T1, PsG3Ox; assay: inhibition of D-Glc oxidation, steady-state kinetics (Lineweaver-Burk, secondary plot of slopes); type: biochemical; design: gene ARTSIC4J27_4061

T1 sequence (A0A024H8G7 1-519): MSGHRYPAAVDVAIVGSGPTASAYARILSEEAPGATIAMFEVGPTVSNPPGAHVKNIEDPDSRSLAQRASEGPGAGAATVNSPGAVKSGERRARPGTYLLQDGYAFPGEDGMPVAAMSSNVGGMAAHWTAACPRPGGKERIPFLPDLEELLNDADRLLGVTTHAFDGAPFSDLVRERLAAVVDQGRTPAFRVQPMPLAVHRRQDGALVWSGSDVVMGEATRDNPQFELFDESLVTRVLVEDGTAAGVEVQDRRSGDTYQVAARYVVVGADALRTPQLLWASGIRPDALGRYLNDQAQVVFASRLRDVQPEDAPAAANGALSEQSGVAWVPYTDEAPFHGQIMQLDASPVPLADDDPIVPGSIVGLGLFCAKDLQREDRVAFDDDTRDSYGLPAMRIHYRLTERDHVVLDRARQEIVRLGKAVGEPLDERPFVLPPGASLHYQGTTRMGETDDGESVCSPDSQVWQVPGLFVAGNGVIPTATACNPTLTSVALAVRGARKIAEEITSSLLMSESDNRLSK

Row | Compound | Kd (PsG3Ox [1]) [µM] | Ki (PsG3Ox [2]) [µM]
1 | Cc1cc2nc3c(=O)[nH]c(=O)nc-3n(C[C@H](O)[C@H](O)[C@H](O)COP(=O)(O)OP(=O)(O)OC[C@H]3O[C@@H](n4cnc5c(N)ncnc54)[C@H](O)[C@@H]3O)c2cc1C [FAD] | 0.2 | 
2 | C[C@@H]1O[C@@H](OC[C@H]2O[C@@H](Oc3c(-c4ccc(O)c(O)c4)oc4cc(O)cc(O)c4c3=O)[C@H](O)[C@@H](O)[C@@H]2O)[C@H](O)[C@H](O)[C@H]1O [rutin] |  | 100
